Measurements from US20230150926A1, “CATIONIC LIPIDS FOR LIPID NANOPARTICLE DELIVERY OF THERAPEUTICS TO HEPATIC STELLATE CELLS” (GENEVANT SCIENCES GMBH, priority 2020, published 2023).

Legend:
[1] = tested on: reelin mRNA (RELN), a stellate cell target; assay: Reelin (RELN) mRNA knock-down in liver after IV administration of siRNA LNP (QuantiGene, RELN:GAPD mRNA ratio); format: in vivo, Balb/C mice; conditions: for reelin mRNA knock-down, activity at high dose: 1 mg/kg dose and greater
Procedure: The lipid solution contained 4 components: a PEG-conjugated lipid, an ionizable lipid, cholesterol, and a phospholipid (e.g., DSPC). Lipid stocks were prepared using the lipid identities and molar ratios as described. The siRNA was diluted in 100 mM acetate, pH 4 buffer to prepare lipid nanoparticles (LNP) at a total lipid to siRNA weight ratio of approximately 10:1 to 20:1. Equal volumes of the lipid and nucleic acid solutions were blended at a flow rate of 400 mL/min through a T-connector, and diluted into PBS, pH 7.4. The ethanol was then removed and the external buffer replaced with Tris/NaCl buffer by dialysis. Following dialysis, the formulations were concentrated using VivaSpin concentrator units (MWCO 100,000) and filtered through a 0.2 µm pore sterile filter. Nucleic acid concentration was determined by the RiboGreen assay. Particle size and polydispersity were determined using a Malvern Nano Series Zetasizer.
Generally, the LNP formulations were injected intravenously at 0.025 mg/kg to female Balb/C mice (5-8 weeks old) to measure activity of the HSC-LNP. Just prior to injection, the siRNA LNP stocks were filtered and diluted down to the required dosing concentration. […] Half the left lateral lobe of the liver was collected into 1.5 mL RNALater and stored at 2-8° C. overnight. The next day, an approximately 20-25 mg piece of liver was homogenized and the liver lysate used in a QuantiGene Assay, testing for relative levels of mouse target mRNA and GAPDH expression. Data from each animal was normalized to the liver weight used in the assay, and then relative to the GAPDH signal; data is reported as the average % knockdown of each group (where the PBS control group is 100% gene expression, 0% knockdown).

[2] = Tolerability assessment: serum liver enzyme levels (ALT/AST) after IV administration of LNP; format: in vivo, Balb/C mice; conditions: FIG. 4; 24 hours following IV administration of LNP; 0.03, 1, 3 mg/kg; relative to comparator lipid
Procedure: Generally, the LNP formulations were injected intravenously at ~0.03 to 3 mg/kg to female Balb/C mice (5-8 weeks old) to assess tolerability of the HSC-LNP. Just prior to injection, the siRNA LNP stocks were filtered and diluted down to the required dosing concentration. At 2 h post-treatment, blood was collected via tail nicks and processed to plasma (for cytokine analysis by ELISA). At the terminal timepoint (24 h post-dose), blood was collected by cardiac puncture (target ≥ 800 µL) and sent to IDEXX for CRES 15 panel analysis (CBC/Diff & Clin Chem analysis). Briefly, blood (~300 uL) was collected into EDTA microtainer tubes, inverted 10x to mix the K2EDTA whole blood sample, and immediately stored at 4° C. to await same-day shipment to for hematology analysis. The remaining blood volume (~500 uL) was collected into serum separator tubes and inverted 5× to mix the SST sample, then allowed to clot for 1-1.5 h at room temp. The blood samples were centrifuged, and serum was collected for clinical chemistry analysis.

[3] = FIG. 3, 24 hours following IV administration of LNP

Structure (SMILES)	knock-down as indicated by the RELN:GAPD mRNA ratio ([1]; FIG. 1, 0.1 mg/kg, versus comparator lipid and PBS)	reelin mRNA knock-down, potency relative to comparator lipid ([1]; FIG. 2, 48 hours following IV administration of LNP, Balb/C mice (n=4))	reelin mRNA knock-down, activity at high dose [1, 3]	reelin mRNA knock-down, potency relative to comparator lipid ([1]; FIG. 3, 24 hours following IV administration of LNP, low dose of 0.03 mg/kg)	potency relative to comparator lipid, as restated in the tolerability figure ([1]; FIG. 4 legend, no dose stated)	liver enzyme levels (ALT/AST) in serum [2]
CCCCC/C=C\CCCC(=O)OC(CCC/C=C\CCCCC)C(CCC/C=C\CCCCC)OC(=O)CCCCCN(C)C (stereo not shown) [representative lipid of the invention]	excellent knock-down	equivalent potency to a comparator lipid at 4-fold lower dose	Saturating activity	significantly more potent than the comparator lipid	significantly more potent	slightly higher liver enzyme levels relative to the comparator lipid
CCCCC/C=C\CCCC(CCC/C=C\CCCCC)C(CCC/C=C\CCCCC)OC(=O)CCCCCN(C)C (stereo not shown) [compound 100, reference compound]			Saturating activity			
